Results on two compounds are retold here after publication PMC2812684 (Biochimica et biophysica acta, 2009).

The structures appear in SMILES notation. Like-named read-outs stand apart in the source and are kept apart here.

Holding throughout (assay type): cell-based
Assay [1] has as its target T1, succinate dehydrogenase (complex II) (Rattus norvegicus, UniProt Q920L2). Description: Inhibition of respiration by 3-nitropropionic acid in whole. The conditions noted are these: endogenous substrates.
In assay [2] the target is T1, succinate dehydrogenase (complex II). The following applies: for IC50: IC50 Complex II.
Assay [3] addresses T2, cytochrome bc1 oxidoreductase (complex III) (Rattus norvegicus, UniProt P00159). In words: Inhibition of respiration by antimycin A in whole. The conditions noted are these: endogenous substrates.
For assay [4], the target named is T2, cytochrome bc1 oxidoreductase (complex III). The conditions noted are these: for decrease of IC50 with exogenous vs endogenous substrates: excess exogenous glutamate, malate, succinate.

Usually IC50 stands for the concentration needed to halve the response being measured. Low readings indicate greater potency in that assay, high ones weaker potency in that assay.

T1 sequence (Q920L2 whole entry, looked up, one chain of several): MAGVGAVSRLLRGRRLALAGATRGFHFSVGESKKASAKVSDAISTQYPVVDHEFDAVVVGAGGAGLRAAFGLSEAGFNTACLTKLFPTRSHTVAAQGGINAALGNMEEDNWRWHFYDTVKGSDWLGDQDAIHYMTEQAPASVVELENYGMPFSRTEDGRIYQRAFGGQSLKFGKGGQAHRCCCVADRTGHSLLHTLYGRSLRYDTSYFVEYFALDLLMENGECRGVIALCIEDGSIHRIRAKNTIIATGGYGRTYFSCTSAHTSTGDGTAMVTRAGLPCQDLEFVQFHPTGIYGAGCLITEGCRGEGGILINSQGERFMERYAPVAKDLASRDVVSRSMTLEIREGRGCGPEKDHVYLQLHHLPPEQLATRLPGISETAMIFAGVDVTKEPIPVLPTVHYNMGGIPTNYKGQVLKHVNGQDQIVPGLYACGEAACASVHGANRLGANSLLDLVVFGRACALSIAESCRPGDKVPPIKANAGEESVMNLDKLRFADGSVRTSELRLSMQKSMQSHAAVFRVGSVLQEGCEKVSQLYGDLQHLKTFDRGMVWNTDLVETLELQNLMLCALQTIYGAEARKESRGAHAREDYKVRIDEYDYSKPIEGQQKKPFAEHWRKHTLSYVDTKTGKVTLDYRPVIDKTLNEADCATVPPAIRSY

`O=C(O)CC[N+](=O)[O-]` [3-NP, 3-nitropropionic acid]: the “percent of initial rate remaining at flux point” value in assay [1] (8 mM 3-NP, neurons from middle-age rats) turned out to be 39%. Further, in assay [1] (old vs middle-age neurons, insignificant), the “increase of IC50 with age” value was 49%. Further, the IC50 in assay [2] (MA) is 6.1 mM; in assay [2] (Old) it was 2.1 mM. Moreover, the “increase of IC50 with exogenous vs endogenous substrates” value in assay [2] (neurons from middle-age rats, complex I inhibited, excess exogenous succinate) came out at 7%. Moreover, the “decrease of IC50 with exogenous vs endogenous substrates” value in assay [2] (neurons from old rats, complex I inhibited, excess exogenous succinate) stood at 75%. Further, the “decrease of IC50 with age” value in assay [2] (old vs middle-age permeabilized neurons, exogenous substrates, insignificant) was 66%.

`CCCCCC[C@H]1C(=O)O[C@H](C)[C@H](NC(=O)c2cccc(NC=O)c2O)C(=O)O[C@@H](C)[C@@H]1OC(=O)CC(C)C` [antimycin A] showed an IC50 in assay [3] (IC50 Complex III, Old, neurons from old (24 month) rats) of 0.00016 mM. In addition, the “decrease of IC50 with age” value in assay [3] (old vs middle-age neurons, p=0.006) stood at 35%; in assay [4] (old vs middle-age permeabilized neurons, exogenous substrates, p=0.0001), 60%. Moreover, the “decrease of IC50 with exogenous vs endogenous substrates” value in assay [4] (neurons from middle-age rats) is 46%; in assay [4] (neurons from old rats), 68%.
